From patent publication US6297257A, “Benzazine derivatives phosphodiesterase 4 inhibitors” (Zambon Group S.p.A., priority 1997, dated 2001)
Where a name gives a salt, the structure may show the parent alone.

Legend:
[1] = tested on: TNFα; experiment: TNFα Synthesis Inhibition (LPS-induced, human monocytes, ELISA); format: cell-based; conditions: Monocyte, LPS 1 ng/ml, 16 hours at 37° C.
Method: TNFα Inhibition Test a) Human Monocytes Isolation The monocytes were isolated from peripheral blood of healthy volunteers according the procedure of […]. Natl. Cancer Inst., 1964, 32, 507. The monocytes and lymphocytes population was isolated by Ficoll gradient centrifugation, and the cells diluted at a density of 2.5×10^6 cells/ml in RPMI1640 incubation containing 1% inactivated bovine fetal serum, penicillin (100 U/ml) and streptomycin (100 U/ml) were placed in 24-wells plates (1 ml/well) and left to adhere for 1 hour at 37° C. with 5% CO2. At the end of the incubation the lymphocytes not adhering were removed by aspiration and the monocytes adhered to the plate were used in the next step. b) TNFα Synthesis Inhibition The TNFα synthesis from human monocytes was measured according to the method of Barnette M. et al., Biochemical Pharmacology, 1996, 51, 949. The monocytes were incubated for 1 hour with 1 ml of RPMI1640 incubation medium (1% inactivated bovine serum, 100 U/ml penicillin and streptomycin) containing different concentrations of the products according to the present invention or the carrier only for the controls. The TNFα synthesis from monocytes was induced by adding 1 ng/ml of LPS (lipopolysaccharide of E. Coli) and after 16 hours of incubation at 37° C., 5% CO2, the incubation medium was removed, and the surnatant stored at -80° C. until the measurement. The TNFα levels were determined by ELISA test with an Amersham kit. The results are set forth in Table 2 as IC50 measured with the same calculation of example 53.

[2] = target: T1, PDE 5 (Homo sapiens, UniProt O76074); experiment: PDE 5 Enzyme Inhibition Test (SPA); format: biochemical; conditions: enzyme from human platelets; cGMP 1 μM; head prints (μM), no concentration figure
T1 construct: from tissue; host or cells: human platelets from platelet rich plasma
Method: (§1) PDE 3 and 5 Enzymes Inhibition Test a) Human Platelet Preparation
(§2) Human platelets were prepared from platelet rich plasma (PRP) obtained from the Hematological Dept. of the "L. Sacco" Hospital of Milan. […]
(§3) b) Purification of PDE 3 and PDE 5 with Fast Protein Liquid Chromatography (FPLC) Before the chromatographic step, platelets were thawed and 50 ml of 20 mM TRIS (pH=6.5) containing 5 mM β-mercapto-ethanol, 2 mM EDTA, 50 mM sodium acetate and 50 μM PMSF (homogenization buffer) were added. The platelet suspension was then homogenized by a Polytron homogenizer (Polytron PT 1200) for 20 seconds. The homogenate was centrifuged at 14,500 rpm for 20 minutes at 4° C., and the supernatant was applied to a UNO Q12 column (Bio-Rad) pre-equilibrated with the PMSF. A flow rate of 4.5 ml/min was used throughout the ion exchange chromatography procedure. The column was washed with PMSF (180 ml) and PDE 3 and PDE 5 were eluted by sodium acetate linear gradient from 0.05M to 1M. The fractions containing enzymatic activity were joined, dialyzed against water and concentrated 10 times by ultrafiltration. The resulting solution was stored at -20° C. in the presence of ethylenglycole (30%) v/v) until use. […]
(§4) c) Assay of Phoshodiesterase Activity
(§5) The enzyme activity was assessed with an Amersham kit based on the SPA technique (Scintillation Proximity Assay). The enzymatic reaction was effected in a total volume of 100 μl of TRIS/HCl buffer (50 mM, pH7.5), MgCl2 (8.3 mM), EGTA (1.7 mM), cAMP (for PDE 3 assay) or cGMP (for PDE 5 assay) (1 μM), [^3 H]cAMP or [^3 H]cGMP (10 μl), and 10 μl of the compounds of the invention. The reaction was started by adding the enzyme (10 μl) incubated for 40 minutes at 30° C. and stopped by adding 50 μl of SPA beads. The radioactivity due to the particles was measured in β-emitting counter. The results are expressed as percent activity versus the control present in each test.

[3] = target: T2, PDE 3 (Homo sapiens, UniProt Q14432); experiment: PDE 3 Enzyme Inhibition Test (SPA); format: biochemical; conditions: enzyme from human platelets; cAMP 1 μM; head prints (μM), no concentration figure
T2 construct: the supernatant was applied to a UNO Q12 column (Bio-Rad); from tissue; host or cells: human platelets from platelet rich plasma
T2 sequence (Q14432 whole entry): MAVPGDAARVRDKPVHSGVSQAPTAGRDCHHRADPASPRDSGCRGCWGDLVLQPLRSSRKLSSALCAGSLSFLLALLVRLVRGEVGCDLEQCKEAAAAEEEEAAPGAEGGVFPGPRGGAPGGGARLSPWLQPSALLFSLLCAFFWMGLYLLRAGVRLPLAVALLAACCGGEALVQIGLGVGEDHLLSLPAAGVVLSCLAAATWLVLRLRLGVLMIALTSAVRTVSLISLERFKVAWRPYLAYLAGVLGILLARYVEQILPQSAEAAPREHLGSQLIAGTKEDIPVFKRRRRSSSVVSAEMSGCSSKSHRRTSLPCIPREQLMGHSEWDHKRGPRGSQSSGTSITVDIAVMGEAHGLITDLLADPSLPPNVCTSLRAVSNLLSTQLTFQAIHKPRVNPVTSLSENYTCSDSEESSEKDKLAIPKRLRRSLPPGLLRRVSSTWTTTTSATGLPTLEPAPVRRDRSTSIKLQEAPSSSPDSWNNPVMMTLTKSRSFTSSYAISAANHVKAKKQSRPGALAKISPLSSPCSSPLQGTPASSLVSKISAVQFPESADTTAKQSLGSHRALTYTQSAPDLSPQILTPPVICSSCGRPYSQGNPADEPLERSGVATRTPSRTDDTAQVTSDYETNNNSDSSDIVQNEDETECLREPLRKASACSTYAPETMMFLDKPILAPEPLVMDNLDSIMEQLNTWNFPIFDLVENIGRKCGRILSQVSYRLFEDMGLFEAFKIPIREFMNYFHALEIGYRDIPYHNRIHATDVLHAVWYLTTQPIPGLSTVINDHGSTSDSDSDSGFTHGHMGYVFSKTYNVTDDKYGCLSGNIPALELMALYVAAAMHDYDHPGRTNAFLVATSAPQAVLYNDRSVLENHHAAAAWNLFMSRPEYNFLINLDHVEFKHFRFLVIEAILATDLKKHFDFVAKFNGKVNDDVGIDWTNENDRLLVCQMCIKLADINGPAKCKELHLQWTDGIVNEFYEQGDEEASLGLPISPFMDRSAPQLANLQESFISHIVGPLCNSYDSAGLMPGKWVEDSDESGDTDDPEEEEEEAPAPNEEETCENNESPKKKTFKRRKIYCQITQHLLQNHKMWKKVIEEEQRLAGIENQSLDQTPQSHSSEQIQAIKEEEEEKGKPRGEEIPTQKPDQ
Method: as §1, §2, §3, §4, §5

[4] = tested on: PDE 4; experiment: PDE 4 Enzyme Inhibition (SPA); format: biochemical; conditions: enzyme from human PMNs, cAMP 1 μM; for IC50: 40 minutes at 30° C.
From the text: PDE 4 Enzyme Inhibition Study a) Purification of Human Polymorphonucleate Leukocytes The polymorphonucleate leukocytes (PMNs) were isolated from peripheral blood of healthy volunteers according to what described by Boyum A., Scand. J. Immunol., 1976, 50 suppl., 9). Shortly, the isolation of the PMNs was effected by Ficoll-Paque gradient centrifugation followed by sedimentation on dextrane and the erythrocyte contanunation was eliminated by hypotonic lysis. b) PDE 4 Enzyme Purification The human PMNs were re-suspended in TRIS/HCl buffer (10 mM pH 7.8) containing MgCl2 (5 mM), EGTA (4 mM), mercaptoethanol (5 mM), TRITON-X100 (1%), pepstatin A (1 μM), PMSF (100 μM) and leupeptin (1 μM), and homogenized by Polytron. The homogenate was centrifuged at 25,000×g per 30 minutes at 4° C. and the sumatant was used for the PDE 4 enzyme purification by ion exchange chromatography using the FPLC technique according to what described by Schudt C. et al., Naunyn-Schmidberg's Arch. Pharmacol., 1991, 334, 682. The surnatant was seeded on a UNO Q12 column (Bio-Rad) and the enzyme was eluted by sodium acetate gradient from 50 mM to 1M. The fractions containing enzymatic activity were joined, dialysed against water and concentrated. The resulting PDE 4 enzyme was stored at -20° C. in the presence of ethylenglycole (30%) v/v) till the use c) PDE 4 Enzyme Inhibition The enzyme activity was evaluated with an Amersham kit based on the SPA technique (Scintillation Proximity Assay). The enzymatic reaction was effected in a total volume of 100 μl of TRIS/HCl buffer (50 mM, pH7.5), MgCl2, (8.3 mM), EGTA (1.7 mM), cAMP (1 μM) and [^3 H]cAMP (~100.000 dpm). The compounds of the invention were added at the wanted concentrations. The reaction was started by adding the enzyme (15 μg protein/ml) in 40 minutes at 30° C. and stopped by adding 50 μl of suspension of SPA particles. The radioactivity due to the particles was measured in β-emitting counter. The IC50 values were calculated on 9 equidistant concentrations in logarithmic scale using a 4-parameters logistic function by a software.

IC50 [1]	PDE 5 % inhibition (μM) [2]	PDE 3 % inhibition (μM) [3]	PDE 4 % inhibition ([4]; 10^-5 M)	PDE 4 % inhibition ([4]; 10^-6 M)	IC50 [4]	Compound
252 ± 67 nM	10%	0%	96%	79%	148 ± 18 nM	COc1ccc2c(c1OC1CCCC1)CCN=C2Cc1c(Cl)cncc1Cl [Compound 1, 5-Cyclopentyloxy-1-(3,5-dichloro-2-pridin-4-yl-methyl)-6-methoxy-3,4-dihydro-isoquinoline Hydrochloride]
			88%	54%	1050 ± 191 nM	COc1cc2c(cc1OC1CCCC1)C(Cc1c(Cl)cncc1Cl)=NCC2.Cl [Compound 2, 7-Cyclopentyloxy-1-(3,5-dichloro-pyridin-4-yl-methyl)-6-methoxy-3,4-dihydro-isoquinoline Hydrochloride]
				54%		COc1ccc2c(c1OCCCCCc1ccccc1)CCNC2Cc1c(Cl)cncc1Cl.Cl.Cl (centres unmarked) [Compound 4, 1-(3,5-dichloro-pyridin-4-yl-methyl)-5-(5-phenylpentyloxy)-6-methoxy-1,2,3,4-tetrahydro-isoquinoline Dihydrochloride]
				60%		COC(=O)c1c(Cc2c(Cl)cncc2Cl)c2ccc(OC)c(OC3CCCC3)c2[nH]c1=O [Compound 8, 8-Cyclopentyloxy-4-(3,5-dichloro-pyridin-4-yl-methyl)-7-methoxy-2-oxo-1,2-dihydro-quinolin-carboxylic Acid Methyl Ester]
				73%		COc1cc2[nH]cc(-c3c(Cl)cncc3Cl)c(=O)c2cc1OC1CCCC1 [Compound 10, 6-Cyclopentyloxy-3-(3,5-dichloro-pyridin-4-yl)-7-methoxy-1H-quinolin-4-one]
78.7 ± 16 nM	10%	12%	100%	94%	101 ± 21 nM	COc1cc2c(cc1OC1CCCC1)C(=O)C(c1c(Cl)cncc1Cl)CN2 (centres unmarked) [Compound 12, 6-Cyclopentyloxy-3-(3,5-dichloro-pyridin-4-yl)-7-methoxy-2,3-dihydro-1H-quinolin-4-one]

Compound	IC50 [1]	PDE 5 % inhibition (μM) [2]	PDE 3 % inhibition (μM) [3]	PDE 4 % inhibition ([4]; 10^-5 M)	PDE 4 % inhibition ([4]; 10^-6 M)	IC50 [4]
COc1ccc2c(c1OCCCCCc1ccccc1)CCN=C2Cc1c(Cl)cncc1Cl.Cl [Compound 3, 1-(3,5-Dichloro-pyridin-4-yl-methyl)-5-(5-phenylpentyloxy)-6-methoxy-3,4-dihydro-isoquinoline Hydrochloride]	83 ± 16 nM	12%	24%		93%	87.5 ± 17 nM
